{"source": "patent US20250345447A1", "about": "“PHARMACEUTICAL COMPOSITION OF RECOMBINANT ANTI-HUMAN CLDN18.2 MONOCLONAL ANTIBODY-MMAE CONJUGATE” (CSPC MEGALITH BIOPHARMACEUTICAL CO., LTD., priority 2022, published 2025)", "molecules": {"B1": {"name": "SYJS001-ADC (recombinant anti-human CLDN18.2 monoclonal antibody-MMAE conjugate) (antibody, human IgG1, kappa, V domains shown)", "VH": "EVQLSESGGALVQPGESLRLSCAASGFTFSSYAMTWVRQAPGKGLEWVSSLSGSGRSTYYAASIKGRFTISRDNSKNTLYLQMSSLRAEDTAIYYCAKSLSYYHYYFDYWGQGTLVTVSS", "VL": "DIQLTQSPSFLSASVGDRVPITCRASQDISNYLAWYQQKPGKAPKLLIYSASTLQSGVPSRFSGSGSGTEFTLTISSLQPEDFASYHCQQVKTYPLTFGGGTKVEIKR", "modifications": "one molecule of MMAE conjugated via the linker NH2-PEG3-Val-Cit (LND1002) by an amide (isopeptide) bond to Q298 (i.e., Q295 according to Kabat numbering) of each heavy chain; mean DAR 2.0", "notes": "also called anti-CLDN18.2 antibody-drug conjugate SYJS001-ADC"}}, "key": {"[1]": {"tested_on": "human pancreatic cancer Bxpc3-18.2", "assay": "Bxpc3-18.2 nude mouse xenograft tumor model, gemcitabine as control", "format": "in vivo", "experimental": "When the tumor grew to a volume of about 100 mm^3 (day 39 after inoculation), 48 animals with good tumor growth were selected and equally divided into 6 groups (day 0) according to the tumor volume, with 8 animals in each group. […] The tumor diameters were measured twice a week, the mice were weighed, and the data were recorded. The tumor growth was dynamically observed by measuring the tumor diameters at different times after administration. The experiment was ended on day 28, the mice were asphyxiated with carbon dioxide, and then the tumors were stripped off and weighed."}, "[2]": {"tested_on": "human gastric cancer NUGC-4-18.2", "assay": "NUGC-4-18.2 nude mouse xenograft tumor model, cisplatin as control", "details": "6 mg/kg i.v. qw×3, day 20", "experimental": "2) In this experiment, human gastric cancer NUGC-4-18.2 was selected to construct a nude mouse xenograft tumor model. When the tumor grew to a volume of about 120 mm^3 (day 6 after inoculation), 64 animals with good tumor growth were selected and equally divided into 8 groups (day 0) according to the tumor volume, with 8 animals in each group. […] The tumor diameters were measured twice a week, the mice were weighed, and the data were recorded. The change in the tumor growth was dynamically observed by measuring the tumor diameters at different times after administration. The experiment was ended on day 20, the animals were asphyxiated with carbon dioxide, and then the tumors were stripped off and weighed."}, "human CLDN18.2 (human)": {"target": "human CLDN18.2 (human) (UniProt P56856)", "assay": "flow cytometry on HEK293-human CLDN18.2 cells, four-parameter fit; given as ED50"}, "mouse CLDN18.2 (mouse)": {"target": "mouse CLDN18.2 (mouse) (UniProt P56857)", "assay": "flow cytometry on HEK293-mouse CLDN18.2 cells, four-parameter fit; given as ED50"}, "[3]": {"target": "T1, cynomolgus monkey CLDN18.2 (cynomolgus monkey, UniProt A0A2K5VVB4 1-261)", "T1 chain": "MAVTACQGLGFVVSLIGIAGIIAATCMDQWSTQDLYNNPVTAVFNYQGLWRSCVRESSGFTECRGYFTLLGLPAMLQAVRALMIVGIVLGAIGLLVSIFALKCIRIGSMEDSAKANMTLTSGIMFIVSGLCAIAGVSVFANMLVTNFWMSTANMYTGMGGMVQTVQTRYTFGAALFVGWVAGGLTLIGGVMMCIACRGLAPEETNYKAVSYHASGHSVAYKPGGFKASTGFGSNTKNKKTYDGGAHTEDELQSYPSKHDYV", "assay": "flow cytometry on CHO-K1-cynomolgus monkey CLDN18.2 cells, four-parameter fit; given as ED50"}}, "data": [{"molecule": "Nc1ccn([C@@H]2O[C@H](CO)[C@@H](O)C2(F)F)c(=O)n1", "note": "[Gemcitabine, gemcitabine, reference compound]", "values": [{"measurement": "tumor weight inhibition rate", "setting": "[1]; 50 mg/kg i.v. biw×4, day 28", "result": 51.0, "unit": "%"}, {"measurement": "tumor growth compared with the solvent control group", "setting": "[1]; SYJS001-ADC 2, 4 and 8 mg/kg single, GEM 50 mg/kg biw×4, P<0.01", "result": "significantly inhibited"}]}, {"molecule": "N.N.[Cl][Pt][Cl]", "note": "[cisplatin, reference compound]", "values": [{"measurement": "tumor weight inhibition rate", "setting": "[2]", "result": 66.5, "unit": "%"}]}, {"molecule": "B1", "values": [{"measurement": "EC50", "setting": "human CLDN18.2 (human)", "result": 0.439, "unit": "µg/mL"}, {"measurement": "EC50", "setting": "mouse CLDN18.2 (mouse)", "result": 0.717, "unit": "µg/mL"}, {"measurement": "EC50", "setting": "[3]", "result": 0.648, "unit": "µg/mL"}]}]}
